Experimental data from the supplement of paper PMC10307832.

Columns and labels:
Assay in all cases: relative viability (nuclei count vs DMSO), 5 days (fraction); higher = more cells survive
[1] = compound: C1CNCCC1C2=CC(=NN2)C3=CC=NC=C3 + CC(C)C[C@H](NC(=O)[C@H](Cc1ccccc1)NC(=O)c1cnccn1)B(O)O [Bortezomib] (partner 0.002 µM)
Summary of the method: (§1)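 Nuclei were stained with Hoechst during a one-step fixation (final 0.05% Triton X-100, 1% formaldehyde, 1 ug/ml Hoechst) carried out 5 days after dosing, then counted on 4× images. The cells, lung cancer lines in 1536-well plates, had been dosed by pin tool the day after seeding with one drug alone or a fixed anchor-drug dose plus five library-drug doses (not always all listed) in √10 steps. Relative viability is the nuclei count in treated wells divided by that in vehicle wells, and each value is the median of duplicate plates.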

[2] = compound: C[C@@H](N)c1ccc(C(=O)Nc2ccnc3[nH]ccc23)cc1 + Nc1nc2[nH]cc(CCc3ccc(C(=O)N[C@@H](CCC(=O)O)C(=O)O)cc3)c2c(=O)[nH]1 [Pemetrexed] (partner 0.2 µM)
Summary of the method: as §1

Tanzisertib + OSI-027 = compound: O[C@H]1CC[C@H](Nc2ncc3nc(Nc4c(F)cc(F)cc4F)n([C@H]4CCOC4)c3n2)CC1 [Tanzisertib] + COc1cccc2cc(-c3nc([C@H]4CC[C@H](C(=O)O)CC4)n4ncnc(N)c34)[nH]c12 [OSI-027] (partner 0.5 µM)
Summary of the method: as §1

[3] = compound: C1CNCCC1C2=CC(=NN2)C3=CC=NC=C3 + C[C@]1(O)C[C@@H](c2nc(-c3ccc4ccc(-c5ccccc5)nc4c3)c3c(N)nccn32)C1 [Linsitinib] (partner 1 µM)
Summary of the method: as §1

Row | Cell Line | relative viability ([1]; first compound 0.08 µM) | relative viability ([1]; first compound 0.8 µM) | relative viability ([1]; first compound 2.53 µM) | relative viability ([1]; first compound 8 µM) | relative viability ([2]; first compound 0.04 µM) | relative viability ([2]; first compound 0.1265 µM) | relative viability ([2]; first compound 0.4 µM) | relative viability ([2]; first compound 1.265 µM) | relative viability ([2]; first compound 4 µM) | relative viability (Tanzisertib + OSI-027; first compound 0.08 µM) | relative viability (Tanzisertib + OSI-027; first compound 0.253 µM) | relative viability (Tanzisertib + OSI-027; first compound 0.8 µM) | relative viability (Tanzisertib + OSI-027; first compound 2.53 µM) | relative viability (Tanzisertib + OSI-027; first compound 8 µM) | relative viability ([3]; first compound 0.08 µM) | relative viability ([3]; first compound 0.8 µM) | relative viability ([3]; first compound 2.53 µM) | relative viability ([3]; first compound 8 µM)
1 | NCI-H1437 | 0.495 | 0.607 | 0.552 | 0.462 | 0.3 | 0.307 | 0.351 | 0.329 | 0.34 | 0.85 | 0.822 | 0.943 | 0.902 | 0.908 | 0.986 | 1.03 | 1.16 | 1.05
2 | NCI-H1563 | 0.744 | 0.853 | 0.917 | 0.977 | 0.772 | 0.915 | 0.867 | 0.413 | 0.706 | 0.789 | 0.731 | 0.722 | 0.731 | 0.704 | 0.868 | 1.13 | 1.24 | 1.25
3 | NCI-H1651 | 0.907 | 0.923 | 1.02 | 0.949 | 0.628 | 0.584 | 0.663 | 0.611 | 0.706 | 0.712 | 0.58 | 0.833 | 0.614 | 0.678 | 0.923 | 0.977 | 0.966 | 1.14
4 | NCI-H1666 | 0.865 | 0.724 | 0.959 | 0.962 | 0.872 | 0.815 | 0.847 | 0.956 | 0.974 | 0.877 | 0.869 | 0.944 | 0.834 | 0.786 | 0.758 | 0.748 | 0.862 | 0.814
5 | NCI-H1734 | 0.97 | 1.04 | 1.21 | 1.03 | 0.405 | 0.419 | 0.385 | 0.362 | 0.39 | 0.758 | 0.581 | 0.588 | 0.723 | 0.586 | 0.845 | 0.885 | 0.908 | 0.811
6 | NCI-H1755 | 0.991 | 0.943 | 1.04 | 0.932 | 0.433 | 0.527 | 0.448 | 0.425 | 0.471 | 0.747 | 0.77 | 0.676 | 0.706 | 0.517 | 1.01 | 0.966 | 0.969 | 0.916
7 | NCI-H1792 | 0.96 | 0.998 | 1.07 | 0.993 | 0.817 | 0.731 | 0.875 | 0.72 | 0.584 | 0.752 | 0.716 | 0.728 | 0.676 | 0.446 | 0.521 | 0.514 | 0.566 | 0.534
8 | NCI-H1915 | 1 | 0.977 | 0.932 | 0.934 | – | 0.501 | 0.541 | – | 0.449 | 0.695 | 0.633 | 0.615 | 0.669 | 0.34 | 1.05 | 1.14 | 1.1 | 1.11
9 | NCI-H1975 | 0.396 | 0.423 | 0.479 | 0.369 | 0.313 | 0.31 | 0.265 | 0.228 | 0.211 | 0.926 | 0.773 | 0.671 | 0.673 | 0.587 | 0.952 | 1.14 | 0.917 | 0.97
